The numbers were not newly measured in US20260216324A1, “QS-21 COMPOSITIONS AND PROCESSES FOR PRODUCING THE SAME AND USES THEREFOR” (priority 2022, published 2026), which cites them from elsewhere.

The conditions of series [1]: U.S. Pat. No. 5,583,112 (Example 11), isomers derived from bark.
For series [2] the following is noted: U.S. Pat. No. 5,583,112 (Example 11), isomers derived from bark. The source holds these as a separate data set.
For series [3] the following is noted: prior art; saponins purified from Quillaja saponaria bark extract.

`CC[C@H](C)[C@H](C[C@H](O)CC(=O)O[C@@H]1[C@H](O)[C@@H](O[C@@H]2O[C@@H](C)[C@H](O[C@@H]3OC[C@@H](O)[C@H](O[C@@H]4OC[C@](O)(CO)[C@H]4O)[C@H]3O)[C@@H](O)[C@H]2O)[C@H](OC(=O)[C@]23CCC(C)(C)C[C@H]2C2=CC[C@@H]4[C@@]5(C)CC[C@H](O[C@@H]6O[C@H](C(=O)O)[C@@H](O)[C@H](O[C@@H]7OC[C@@H](O)[C@H](O)[C@H]7O)[C@H]6O[C@@H]6O[C@H](CO)[C@H](O)[C@H](O)[C@H]6O)[C@@](C)(C=O)[C@@H]5CC[C@@]4(C)[C@]2(C)C[C@H]3O)O[C@@H]1C)OC(=O)C[C@@H](O)C[C@H](O[C@@H]1O[C@@H](CO)[C@H](O)[C@H]1O)[C@@H](C)CC` (single isomer, unassigned) [purified apiose isomer]: the “toxicity compared to standard 65:35 QS-21” value in series [1] was “comparable in both adjuvanticity and toxicity to the standard 65:35 (apiose:xylose ratio) QS-21”. The “adjuvanticity compared to standard 65:35 QS-21” value in series [2] is “comparable in both adjuvanticity and toxicity to the standard 65:35 (apiose:xylose ratio) QS-21”.

With `CC[C@H](C)[C@H](C[C@H](O)CC(=O)O[C@@H]1[C@H](O)[C@@H](O[C@@H]2O[C@@H](C)[C@H](O[C@@H]3OC[C@@H](O)[C@H](O[C@@H]4OC[C@@H](O)[C@H](O)[C@H]4O)[C@H]3O)[C@@H](O)[C@H]2O)[C@H](OC(=O)[C@]23CCC(C)(C)C[C@H]2C2=CC[C@@H]4[C@@]5(C)CC[C@H](O[C@@H]6O[C@H](C(=O)O)[C@@H](O)[C@H](O[C@@H]7OC[C@@H](O)[C@H](O)[C@H]7O)[C@H]6O[C@@H]6O[C@H](CO)[C@H](O)[C@H](O)[C@H]6O)[C@@](C)(C=O)[C@@H]5CC[C@@]4(C)[C@]2(C)C[C@H]3O)O[C@@H]1C)OC(=O)C[C@@H](O)C[C@H](O[C@@H]1O[C@@H](CO)[C@H](O)[C@H]1O)[C@@H](C)CC` (single isomer, unassigned) [purified xylose isomer], in series [1], the “toxicity compared to standard 65:35 QS-21” value was “comparable in both adjuvanticity and toxicity to the standard 65:35 (apiose:xylose ratio) QS-21”. The “adjuvanticity compared to standard 65:35 QS-21” value in series [2] is “comparable in both adjuvanticity and toxicity to the standard 65:35 (apiose:xylose ratio) QS-21”.

As to QS-17, in series [3], the adjuvant activity entry is reported as “adjuvant active”.

As for QS-18, the adjuvant activity result in series [3] was “adjuvant active”.
